The subject of the test is binding of human IgA to the purified Cβ protein. Briefly: ELISA inhibition assay: peptides blocking binding of human IgA to purified Cβ protein. The conditions noted are these: synthetic peptide added with half-maximal dilution of IgA myeloma protein. Here is the method: Several synthetic peptides were made corresponding to the amino acid sequence contained within this region of the Cβ protein. Peptides were synthesized using NMP t-butoxycarbonyl chemistry on an ABI 430A peptide synthesizer (Applied Biosystems, Foster City, Calif.) and were deprotected. Peptides from a sample of the resin were removed from the resin by treatment with HF in the presence of anisole (0° C./1 h). Preparative purification of these peptides were performed using a C18 column (2.14 ID×30 cm) (Dynamax-Rainin, Woburn, Mass.). The peptides were quantitated by PTC amino acid analysis using Waters Picotag system (Waters, Milford, Mass.). The synthesized peptides eluted from the C18 column as a major peak consisting of usually 75-85% of the total elution profile. The amino acid composition of the purified peptides were in good agreement with the sequence which was used to synthesize the peptides. […] The plates were incubated at 37° C. for 1 h and the absorbance at 405 nm determined using an Elida-5 microtiter plate reader (Physica, New York, N.Y.). […] This was done to obtain a titer of the human IgA myeloma protein which would give a half-maximal reading in the ELISA assay. […] The dilution of the human IgA myeloma protein which gave the half maximal reading was then added. […] The plates were then processed and read as described. The percentage of inhibition would be calculated as follows: […]

No end group written: not given here.

The source of these data is patent US20020058042A1, “Non-IgA fc binding forms of the Group B streptococcal beta antigens” (priority 1996, published 2002).

NHQKSQVEKMAEQKG [SEQ ID NO: 10]: the “inhibition of human IgA binding to purified Cβ” value is reported as “inhibited”.
